Results: article PMC6268586, “Effect of Wine and Vinegar Processing of Rhizoma Corydalis on the Tissue Distribution of Tetrahydropalmatine, Protopine and Dehydrocorydaline in Rats” (Molecules, 2012)
Read-outs that look alike come from different tables or passages of the source.

Assay: Tissue distribution of THP, DHC and protopine in rat tissues after gastric gavage administration (HPLC-UV, non-compartmental analysis)
Assay type: in vivo, Wistar male rats
Settings: male, Wistar, po, 26.1 mg/kg; for AUC(0-t): read-out: AUC0–24 h of DHC; for Cmax: read-out: Cmax of DHC; for MRT: read-out: MRT of DHC; for Tmax: read-out: Tmax of DHC
Protocol: The experimental protocol was approved by the University's Animal Ethics Committee. […] Rats had unlimited access to water. Standard food was given until 12 h before the experiments. Rhizoma Corydalis was processed according to Pharmacopoeia of Chinese Medicine and National Guideline of Traditional Chinese Medicinal Plants Processing. Briefly, fresh Rhizoma Corydalis was boiled in water till the pith turn light brown color. Cooked rhizome was sliced into pieces (4 mm, diameter) and dried at 25 °C. Dried slices were mixed with edible vinegar (100:20, rhizome/vinegar, w/v) or yellow wine (100:10, rhizome/wine, w/v) and the slices allowed to completely absorb the vinegar or wine. The soaked slices were then stir-fried in a metallic pan over a low flame till they were completely dry. The processed Rhizoma Corydalis was added with 70% ethanol (1:30 w/v) and sonicated for 1 h at room temperature. The extract was then concentrated to remove the ethanol residue and stored at 4 °C for further use. […] The ethanol extract of the unprocessed Rhizoma Corydalis and THP, DHC and protopine pure compound were used as the controls. Three hundred and sixty healthy rats were used in total and are divided into six groups (Group 1-6, sixty rats per group). Drugs were administrated by gastric gavage method. In order to keep the dose of THP, DHC and protopine constant in each group, the amount of ethanol extract of Rhizoma Corydalis administrated was normalized based on the dose of protopine pure compound used. The dose of THP and DHC pure compound administrated was same with that in the ethanol extract of Rhizoma Corydalis. The details were listed below. […] Rats were administrated with the 70% ethanol extract of unprocessed Rhizoma Corydalis at a dose of 17.75 g extract/kg body weight. […] Rats received the extract of vinegar-processed Rhizoma Corydalis at a dose of 15 g extract/kg rat body weight. Group 3: Rats were administrated with the extract of wine processed Rhizoma Corydalis at a dose of 15.78 g extract/kg body weight. […] Rats received THP pure compound at a dose of 6.45 mg/kg body weight. Group 6: Rats were administrated 26.10 mg of DHC pure compound/kg body weight. […] Brian tissue was further dissected into six parts: cerebrum, cerebellum, diencephalons, brain stem, hippocampus and striatum. All the tissue samples were rinsed with ice-old saline and stored at -20 °C until extraction. Tissue samples were homogenized in three volumes of ice-cold biological saline and centrifuged for 10 min at 10,000 g and 4 °C. An aliquot of the supernatant (0.5 mL) was collected. Liquid-liquid extraction was used to extract THP, DHC and protopine. One hundred microliter of 1.0 μg/mL nuciferin (internal standard) was mixed with 0.5 mL aliquots of the supernatant. […] The supernatant was evaporated completely under the nitrogen stream in a 60 °C water bath. The residue was redissolved in 100 μL of methanol. A CoMetro HPLC system (CoMetro Technology Ltd, South […], NJ, USA) with 6000 PVW detector UV-VIS detector was used. […] Ltd., Liaoning, China). Other chromatographic conditions were: column temperature, 35 °C; mobile phase, acetonitrile-0.1% phosphoric acid (pH 3.0) (30:70 v/v); flow rate, 1 mL/min; wavelength, 280 nm. Pharmacokinetic parameters were estimated by non-compartmental analysis using Equiv Test/PK (Statistical Solutions Ltd., Saugus, MA, USA). The maximum concentration (Cmax) and the time to reach the maximum concentration (Tmax) were directly obtained from the observed value. All data were represented as mean ± SD. Comparison of values between groups was performed using one-way ANOVA followed by Tukey's test for comparisons among four groups.

[1] = diencephalon, rat diencephalons

COc1cc2c(cc1OC)-c1c(C)c3ccc(OC)c(OC)c3c[n+]1CC2 [DHC, dehydrocorydaline]
AUC(0-t) [1]: 210 ± 50 ng·h/mL
Cmax [1]: 80 ± 20 ng/mL
MRT [1]: 5.3 ± 0.12 h
Tmax [1]: 0.52 ± 0.11 h
AUC(0-t) (rat brain stem): 410 ± 60 ng·h/mL
Cmax (rat brain stem): 160 ± 30 ng/mL
MRT (rat brain stem): 4.29 ± 0.15 h
Tmax (rat brain stem): 0.5 h
AUC(0-t) (rat cerebellum): 170 ± 30 ng·h/mL
Cmax (rat cerebellum): 50 ± 20 ng/mL
MRT (rat cerebellum): 5.67 ± 0.32 h
Tmax (rat cerebellum): 0.25 h
AUC(0-t) (rat cerebrum): 150 ± 30 ng·h/mL
Cmax (rat cerebrum): 50 ± 10 ng/mL
MRT (rat cerebrum): 5.39 ± 0.19 h
Tmax (rat cerebrum): 0.25 ± 0.02 h
AUC(0-t) (rat heart): 850 ± 120 ng·h/mL
Cmax (rat heart): 440 ± 130 ng/mL
MRT (rat heart): 8.72 ± 6.38 h
Tmax (rat heart): 0.25 h
AUC(0-t) (rat hippocampus): 270 ± 60 ng·h/mL
Cmax (rat hippocampus): 70 ± 20 ng/mL
MRT (rat hippocampus): 8.43 ± 0.51 h
Tmax (rat hippocampus): 1.08 ± 0.07 h
AUC(0-t) (rat kidney): 890 ± 90 ng·h/mL
Cmax (rat kidney): 310 ± 20 ng/mL
MRT (rat kidney): 4.94 ± 0.12 h
Tmax (rat kidney): 0.25 ± 0.01 h
AUC(0-t) (rat liver): 1570 ± 340 ng·h/mL
Cmax (rat liver): 620 ± 180 ng/mL
MRT (rat liver): 4.85 ± 0.1 h
Tmax (rat liver): 0.25 h
AUC(0-t) (rat lung): 570 ± 130 ng·h/mL
Cmax (rat lung): 370 ± 110 ng/mL
MRT (rat lung): 3.98 ± 0.1 h
Tmax (rat lung): 0.25 ± 0.01 h
AUC(0-t) (rat spleen): 830 ± 190 ng·h/mL
Cmax (rat spleen): 360 ± 80 ng/mL
MRT (rat spleen): 3.26 ± 0.08 h
Tmax (rat spleen): 0.25 ± 0.1 h
AUC(0-t) (rat striatum): 210 ± 40 ng·h/mL
Cmax (rat striatum): 60 ± 20 ng/mL
MRT (rat striatum): 7.27 ± 0.3 h
Tmax (rat striatum): 0.25 ± 0.01 h
